# Laboratory results as given in publication PMC3155243 (Molecular cancer therapeutics, 2011).
# Tests used:
# proteasome = conditions: bortezomib dose 0.7 mg/m^2; cited from earlier work
# advanced solid tumours = conditions: bortezomib days 1, 4, 8 and 11 with paclitaxel days 1 and 8; cited from earlier work
# [1] = human, in vivo
# [2] = with bortezomib and paclitaxel; cited from earlier work
# [3] = tested on: BMK cancer cell lines and allograft tumors with RAS/RAF/MAPK pathway activation; conditions: baby mouse kidney (BMK) epithelial cell model; cited from earlier work
# clinical = conditions: human, plasma, intravenous
# [4] = Paclitaxel plasma pharmacokinetics
# [5] = Dose Level 1: paclitaxel 40 mg/m^2 + bortezomib 0.7 mg/m^2
# [6] = Dose Level 2: paclitaxel 45 mg/m^2 + bortezomib 0.75 mg/m^2
# [7] = Dose Level 4: paclitaxel 60 mg/m^2 + bortezomib 1.0 mg/m^2
smiles,measurement,setting,value
CC(C)C[C@H](NC(=O)[C@H](Cc1ccccc1)NC(=O)c1cnccn1)B(O)O [bortezomib],effect on proteasome function,proteasome,effectively inhibit proteasome function
same,recommended phase II dose of bortezomib,advanced solid tumours,1.3 mg/m^2
same,MTD of bortezomib,[1],1.0 mg/m^2
N.N.O=C([O-])C1(C(=O)[O-])CCC1.[Pt+2] [carboplatin],recommended phase II dose of carboplatin,[2],6 AUC
CC(=O)O[C@H]1C(=O)[C@@]2(C)[C@H]([C@H](OC(=O)c3ccccc3)[C@]3(O)C[C@H](OC(=O)[C@H](O)[C@@H](NC(=O)c4ccccc4)c4ccccc4)C(C)=C1C3(C)C)[C@]1(OC(C)=O)CO[C@@H]1C[C@@H]2O [paclitaxel],effect on BIM,[3],induced selective BIM accumulation
same,Tmax,clinical,1 h
same,clearance,clinical,283 to 800 mL/min
same,AUC (last),[4]; [5],1140 ± 450 ng·h/mL
same,T1/2,[4]; [5],1.75 ± 1.45 h
same,AUC (last),[4]; [6],1430 ± 900 ng·h/mL
same,T1/2,[4]; [6],0.69 ± 0.20 h
same,AUC (last),[4]; Dose Level 3: paclitaxel 51 mg/m^2 + bortezomib 0.86 mg/m^2,1700 ± 370 ng·h/mL
same,AUC (last),[4]; [7],2290 ± 740 ng·h/mL
same,T1/2,[4]; [7],1.83 ± 0.86 h
same,clearance,[4]; [7],27.2 L/h
